For three molecules, inhibition results are on record in patent US9040519B2, “Fused tetracyclic pyrido [4,3-B] indole and pyrido [3,4-B] indole derivatives and methods of use” (Medivation Technologies, Inc., priority 2010, dated 2015).

Assay [1] concerns the target T1, human recombinant serotonin (5-Hydroxytryptamine) 5-HT5A receptor (Homo sapiens, UniProt P47898).
T1 construct: expressed in transfected cells; host or cells: CHO-K1
In words: Serotonin 5-HT5A radioligand binding ([3H]LSD). The conditions noted are these: compound at 0.1 μM; CHO K1 cells; read-out: Percentage inhibition of ligand binding, Serotonin 5-HT5A. The method, then: To evaluate in radioligand binding assays the activity of compounds of the invention, human recombinant serotonin (5-Hydroxytryptamine) 5-HT5A receptor expressed in Chinese hamster ovary (CHO) K1 cells (Rees, S. et al, FEBS Lett. 355:242, 1994) in a modified Tris-HCl buffer (50 mM Tris-HCl, pH 7.4, 10 mM MgCl2, 0.5 mM EDTA) was used. Compounds of the invention were incubated with 1.7 nM [^3H]Lysergic acid diethylamide (LSD) for 60 min at 37° C. Non-specific binding was estimated in the presence of 100 μM Serotonin (5-HT). Receptor proteins were filtered and washed, the filters were counted to determine [^3H]LSD specifically bound. Compounds were screened at 1 μM or lower, using 1% DMSO as vehicle. Biochemical assay results are presented as the percent inhibition of specific binding in Table 4.

Assay [2] addresses T2, human recombinant serotonin (5-Hydroxytryptamine) 5-HT6 receptor (Homo sapiens, UniProt P50406).
T2 construct: expressed in transfected cells; host or cells: HeLa
Nature of the assay: Serotonin 5-HT6 radioligand binding ([3H]LSD). The conditions noted are these: compound at 0.1 μM; HeLa cells; read-out: Percentage inhibition of ligand binding, Serotonin 5-HT6. The procedure: To evaluate in radioligand binding assays the activity of compounds of the invention, human recombinant serotonin (5-Hydroxytryptamine) 5-HT6 receptor expressed in human HeLa cells (Monsma, F. Jr. et al, Mol. Pharmacol. 43:320, 1993) in a modified Tris-HCl buffer (50 mM Tris-HCl, pH 7.4, 150 mM NaCl, 2 mM Ascorbic Acid, 0.001% BSA) was used. Compounds of the invention were incubated with 1.5 nM [3H]Lysergic acid diethylamide (LSD) for 120 min at 37° C. Non-specific binding was estimated in the presence of 5 μM Serotonin (5-HT). Receptor proteins were filtered and washed, the filters were then counted to determine [3H]LSD specifically bound. Compounds were screened at 1 μM or lower, using 1% DMSO as vehicle. Biochemical assay results are presented as the percent inhibition of specific binding in Table 4.

Assay [3] has as its target T3, human recombinant dopamine D2L receptor (Homo sapiens, UniProt P14416).
T3 construct: expressed in transfected cells; host or cells: CHO
Nature of the assay: Dopamine D2L radioligand binding ([3H]Spiperone). The conditions noted are these: compound at 1 μM; CHO cells; read-out: Percentage inhibition of ligand binding, Dopamine D2L. The method, then: To evaluate in radioligand binding assays the activity of compounds of the invention, human recombinant dopamine D2L receptor expressed in Chinese hamster ovary (CHO) cells (Grandy, D. et al, Proc. Natl. Acad. Sci. USA. 86:9762, 1989; Hayes, G. et al, Mol. Endocrinol. 6:920, 1992) in a modified Tris-HCl buffer (50 mM Tris-HCl, pH 7.4, 1.4 mM Ascorbic Acid, 0.001% BSA, 150 mM NaCl) was used. Compounds of the invention were incubated with 0.16 nM [^3H]Spiperone for 120 min at 25° C. Non-specific binding was estimated in the presence of 10 μM Haloperidol. Receptor proteins were filtered and washed, the filters were then counted to determine [^3H]Spiperone specifically bound. Compounds were screened at 1 μM or lower, using 1% DMSO as vehicle. Biochemical assay results are presented as the percent inhibition of specific binding in Table 3.

Assay [4] addresses T4, human recombinant serotonin (5-Hydroxytryptamine) 5-HT2A receptor (Homo sapiens, UniProt P28223).
T4 construct: expressed in transfected cells; host or cells: CHO-K1
In words: Serotonin 5-HT2A radioligand binding ([3H]Ketanserin). To be noted: compound at 0.1 μM; CHO K1 cells; read-out: Percentage inhibition of ligand binding, Serotonin 5-HT2A. The procedure:
To evaluate in radioligand binding assays the activity of compounds of the invention, human recombinant serotonin (5-Hydroxytryptamine) 5-HT2A receptor expressed in Chinese hamster ovary (CHO) K1 cells (Bonhaus, D. et al, Br. J. Pharmacol. 115:622, 1995; Saucier, C. et al, J. Neurochem. 68:1998, 1997) in a 50 mM Tris-HCl buffer, pH 7.4, was used. Compounds of the invention were incubated with 0.5 nM [^3H]Ketanserin for 60 min at 25° C. Non-specific binding was estimated in the presence of 1 μM Mianserin. Receptor proteins were filtered and washed, the filters were then counted to determine [^3H]Ketanserin specifically bound. Compounds were screened at 1 μM or lower, using 1% DMSO as vehicle. Biochemical assay results are presented as the percent inhibition of specific binding in Table 4.

For assay [5], the target named is T5, human recombinant adrenergic α2C receptor (Homo sapiens, UniProt P18825).
T5 construct: expressed in transfected cells; host or cells: insect Sf9 cells
T5 sequence (P18825 1-462): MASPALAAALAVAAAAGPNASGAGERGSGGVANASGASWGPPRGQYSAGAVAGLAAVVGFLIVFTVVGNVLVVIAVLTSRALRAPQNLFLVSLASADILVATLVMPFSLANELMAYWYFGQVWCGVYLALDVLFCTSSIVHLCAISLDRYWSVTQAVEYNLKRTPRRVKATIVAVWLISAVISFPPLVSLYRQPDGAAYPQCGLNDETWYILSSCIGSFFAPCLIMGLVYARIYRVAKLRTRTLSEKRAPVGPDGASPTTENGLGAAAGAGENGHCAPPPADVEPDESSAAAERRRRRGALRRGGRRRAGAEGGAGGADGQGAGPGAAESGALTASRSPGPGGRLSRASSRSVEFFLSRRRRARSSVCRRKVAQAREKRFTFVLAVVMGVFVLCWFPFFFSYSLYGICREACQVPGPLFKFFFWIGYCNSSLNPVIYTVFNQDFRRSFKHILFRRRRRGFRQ
Nature of the assay: Adrenergic α2C radioligand binding ([3H]MK-912). The conditions noted are these: compound at 0.1 μM; insect Sf9 cells; read-out: Percentage inhibition of ligand binding, Adrenergic α2C. The method, then:
To evaluate in radioligand binding assays the activity of compounds of the invention, human recombinant adrenergic α2C receptor expressed in insect Sf9 cells (Uhlen, S. et al, J. Pharmacol. Exp. Ther. 271:1558, 1994) in a modified Tris-HCl buffer (50 mM Tris-HCl, pH 7.4, 12.5 mM MgCl2, 2 mM EDTA) was used. Compounds of the invention were incubated with 1 nM [^3H]MK-912 for 60 min at 25° C. Non-specific binding was estimated in the presence of 10 μM WB-4101. Receptor proteins were filtered and washed, the filters were then counted to determine [^3H]MK-912 specifically bound. Compounds were screened at 1 μM or lower, using 1% DMSO as vehicle. Biochemical assay results are presented as the percent inhibition of specific binding in Table 3.

T2 sequence (P50406 whole entry): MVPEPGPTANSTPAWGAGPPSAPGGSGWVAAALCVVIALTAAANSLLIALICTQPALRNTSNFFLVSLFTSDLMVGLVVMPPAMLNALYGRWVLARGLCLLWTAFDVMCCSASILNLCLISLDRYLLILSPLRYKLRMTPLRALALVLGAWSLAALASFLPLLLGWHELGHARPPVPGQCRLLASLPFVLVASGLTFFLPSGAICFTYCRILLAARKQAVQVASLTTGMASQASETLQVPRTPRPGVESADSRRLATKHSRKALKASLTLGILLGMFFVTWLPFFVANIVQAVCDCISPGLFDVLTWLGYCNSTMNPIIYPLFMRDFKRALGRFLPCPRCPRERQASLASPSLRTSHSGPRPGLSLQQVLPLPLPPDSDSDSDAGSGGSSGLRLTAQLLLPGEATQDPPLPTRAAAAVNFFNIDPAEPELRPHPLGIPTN
T1 sequence (P47898 whole entry): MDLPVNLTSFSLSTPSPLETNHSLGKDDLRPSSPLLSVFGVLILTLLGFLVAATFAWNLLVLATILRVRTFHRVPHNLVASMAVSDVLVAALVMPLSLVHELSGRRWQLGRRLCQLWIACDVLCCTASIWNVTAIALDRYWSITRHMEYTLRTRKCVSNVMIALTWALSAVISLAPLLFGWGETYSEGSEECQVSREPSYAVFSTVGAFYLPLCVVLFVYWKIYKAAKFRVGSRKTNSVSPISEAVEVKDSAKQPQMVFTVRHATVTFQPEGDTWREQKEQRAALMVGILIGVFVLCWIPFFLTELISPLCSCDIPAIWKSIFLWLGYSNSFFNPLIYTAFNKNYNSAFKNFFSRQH
T4 sequence (P28223 whole entry): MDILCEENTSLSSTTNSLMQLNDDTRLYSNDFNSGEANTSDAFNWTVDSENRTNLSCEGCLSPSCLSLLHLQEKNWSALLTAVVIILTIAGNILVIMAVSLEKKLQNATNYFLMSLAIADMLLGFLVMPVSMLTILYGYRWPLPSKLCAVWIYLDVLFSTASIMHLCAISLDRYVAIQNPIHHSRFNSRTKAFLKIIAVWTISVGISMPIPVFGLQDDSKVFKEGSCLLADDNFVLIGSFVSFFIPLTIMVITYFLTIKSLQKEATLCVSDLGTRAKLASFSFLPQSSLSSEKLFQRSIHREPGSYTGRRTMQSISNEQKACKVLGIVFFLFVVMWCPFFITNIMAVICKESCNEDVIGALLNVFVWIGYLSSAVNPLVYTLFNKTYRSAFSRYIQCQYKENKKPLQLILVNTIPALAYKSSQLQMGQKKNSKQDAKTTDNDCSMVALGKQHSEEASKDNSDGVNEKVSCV
T3 sequence (P14416 whole entry): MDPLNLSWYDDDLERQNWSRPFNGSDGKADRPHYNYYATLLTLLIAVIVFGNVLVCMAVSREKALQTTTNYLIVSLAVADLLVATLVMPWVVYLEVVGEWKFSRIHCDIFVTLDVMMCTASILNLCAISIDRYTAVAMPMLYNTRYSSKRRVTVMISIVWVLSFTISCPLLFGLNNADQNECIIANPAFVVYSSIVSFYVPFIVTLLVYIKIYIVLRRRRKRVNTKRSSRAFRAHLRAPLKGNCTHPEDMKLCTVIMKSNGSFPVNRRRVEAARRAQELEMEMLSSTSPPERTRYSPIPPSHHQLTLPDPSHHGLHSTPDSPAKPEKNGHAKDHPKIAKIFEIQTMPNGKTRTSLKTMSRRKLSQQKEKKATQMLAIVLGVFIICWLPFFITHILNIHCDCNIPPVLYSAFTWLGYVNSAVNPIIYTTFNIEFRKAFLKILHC

For `Cc1ccc2c(c1)c1c3n2C(c2ccccc2)=CCC3(C)CN(C)C1` (stereo not drawn) [Compound 10, 2,3a,10-trimethyl-6-phenyl-2,3,3a,4-tetrahydro-1H-indolo[3,2,1-ij][1,6]naphthyridine], the inhibition (in general, the change of the read-out against control, counted positive when it falls) at 0.1 µM in assay [1] is -8%; in assay [2], 7%; in assay [4], 13%; in assay [5], 2%. For the same molecule, the inhibition at 1 µM in assay [3] amounted to 9%.
For the molecule `Cc1ccc2c(c1)c1c3n2CC(c2ccncc2)=CCC3(C)CN(C)C1` (stereo not drawn) [Compound 11, 2,3a,10-trimethyl-6-pyridin-4-yl-1,2,3,3a,4,7-hexahydro-2,7a-diaza-cyclohepta[jk]fluorene], the inhibition at 0.1 µM amounted to 9% in assay [1], 5% in assay [2], 10% in assay [4] and 1% in assay [5]. The inhibition at 1 µM in assay [3] came to 3%.
Take `Cc1ccc2c(c1)c1c3n2C(c2ccccc2)CCC3(C)CN(C)C1` (stereo not drawn) [Compound 12, 2,3a,10-trimethyl-6-phenyl-2,3,3a,4,5,6-hexahydro-1H-indolo[3,2,1-ij][1,6]naphthyridine]: the inhibition at 0.1 µM in assay [1] was -21%; in assay [2], 21%; in assay [4], 12%; in assay [5] it was -3%. Also, the inhibition at 1 µM in assay [3] turned out to be 5%.
